From ChEMBL document CHEMBL1143586, “Dimeric zanamivir conjugates with various linking groups are potent, long-lasting inhibitors of influenza neuraminidase including H5N1 avian influenza” (J Med Chem, 2005) come the findings set out here.

Values after ≈ are worked out from the molar mass of the structure shown. Values joined by “and” are separate entries in the source; they are usually repeats but may differ in a detail not shown here. Equal values may be shown once. Some results are limits rather than exact numbers.

The subject of data set [1] is Influenza B virus.
The subject of data set [2] is Influenza A virus.
Data set [3] is described as follows: in vivo. The following applies: rat, plasma.
Data set [4] concerns Influenza A virus. The source holds these as a separate data set.
Data set [5] has as its system Influenza A virus. The source holds these as a separate data set.
Data set [6] relates to Influenza A virus. This is another data set of the same source.
For data set [7], the system named is Influenza A virus. The source holds these as a separate data set.
Data set [8] relates to Influenza A virus. This is another data set of the same source.
The test system of data set [9] is Mus musculus. Kind of data set: Single intranasal effective dose required to inhibit viral replication in the 7-Day mouse efficacy model (Dosed with influenza A/Singapore /1/57). Type of data set: functional. The note with it: inhaled or nasal, 168 h.
A short description of data set [10]: in vivo. The following applies: rat, po.
The nature of data set [11]: Plasma half life in rat after 2 mg/kg intravenous dosage. Type of data set: ADME, organism-based. Further details: dose 2 mg/kg, route intravenous.
Data set [12] is described as follows: Plasma half life in rat after 10 mg/kg oral dosage. Details: dose 10 mg/kg, route oral. Type of data set: ADME, organism-based.
For data set [13], the system named is Influenza B virus. The source holds these as a separate data set.
A short description of data set [14]: in vivo. The following applies: rat.
Data set [15] can be described thus: in vivo. The following applies: rat, po. The source holds these as a separate data set.
Data set [16] is described as follows: Plasma half life in rat after 0.4 mg/kg intratracheal dosage. Type of data set: ADME, organism-based. The note with it: inhaled or intranasal. Further details: dose 0.4 mg/kg, route endotracheal.
The subject of data set [17] is Influenza B virus. This is another data set of the same source.
A short description of data set [18]: in vivo. The note with it: rat, inhaled or intranasal.
Data set [19] has as its target Neuraminidase (Influenza A virus (A/Puerto Rico/8/1934(H1N1)), UniProt P03468).
Data set [20] concerns Mus musculus. Kind of data set: Single intranasal effective dose required to inhibit viral replication in the 7-Day mouse efficacy model (Dosed with influenza A/Victoria/3/75). Type of data set: functional. The following applies: inhaled or nasal, 168 h.
Data set [21] has as its target Neuraminidase (Influenza A virus (A/Puerto Rico/8/1934(H1N1)), UniProt P03468). The source holds these as a separate data set.
The target is the same in data set [22]. This is another data set of the same source.

Neuraminidase (Influenza A virus (A/Puerto Rico/8/1934(H1N1)), UniProt P03468), sequence (P03468 whole entry): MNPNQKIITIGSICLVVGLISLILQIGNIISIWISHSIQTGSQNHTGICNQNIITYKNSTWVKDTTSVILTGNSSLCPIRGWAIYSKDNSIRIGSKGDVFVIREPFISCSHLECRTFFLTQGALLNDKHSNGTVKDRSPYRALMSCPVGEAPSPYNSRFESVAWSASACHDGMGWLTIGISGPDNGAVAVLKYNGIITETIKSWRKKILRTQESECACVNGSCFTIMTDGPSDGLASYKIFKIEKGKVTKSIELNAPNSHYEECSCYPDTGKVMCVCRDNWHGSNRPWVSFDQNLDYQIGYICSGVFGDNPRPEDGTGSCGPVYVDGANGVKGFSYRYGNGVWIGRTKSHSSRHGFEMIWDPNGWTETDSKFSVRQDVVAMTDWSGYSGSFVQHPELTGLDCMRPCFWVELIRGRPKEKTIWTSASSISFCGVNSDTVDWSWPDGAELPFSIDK

With `[H]/N=C(\N)N[C@H]1C=C(C(=O)O)O[C@@H]([C@H](O)[C@H](O)CO)C1NC(C)=O` (some centres not stated), the EC50 (in general, the concentration needed to bring the measured effect to its halfway point) is 11.5 ng/mL (≈ 34.6 nM) in [1]; 0.27 ng/mL (≈ 0.812 nM) in data set [2]; 2.4 ng/mL (≈ 7.22 nM) in data set [4]; 56 ng/mL and > 100 ng/mL in data set [5]; 2.7 ng/mL (≈ 8.12 nM) in data set [6]; 5.5 ng/mL (≈ 16.6 nM) in data set [7]. The figures for the EC50 in data set [8] and in [13] were 35 ng/mL (≈ 105 nM) and 21 ng/mL (≈ 63.2 nM), respectively. In addition, the clearance (as a rule, the rate of elimination divided by the concentration) in data set [3] came to 1.42 mL/min/kg. For the same compound, in data set [9], the ED90 is 2.92 mg/kg. Besides, the bioavailability (in general, dose-corrected exposure relative to a reference, in per cent) in data set [10] was found to be 2.7%. Further, the figures for the half-life in data set [11] and in data set [12] were 0.4 h and 0.25 h, respectively. In [14], the volume of distribution (Vd) (commonly a proportionality between amount in the body and measured concentration, not a real space) amounted to 0.03 L/kg.

As to `COC(=O)C1=C[C@H](N=C(N)N)C(NC(C)=O)[C@H]([C@H](OC(=O)NCCCNC(=O)c2ccc(C(=O)NCCCNC(=O)O[C@H](C(O)CO)[C@@H]3OC(C(=O)O)=C[C@H](N=C(N)N)C3NC(C)=O)cc2)C(O)CO)O1` (some centres not stated), the bioavailability was below 1% in data set [15] and 67% in [18]. Further, the half-maximal effective concentration (EC50) in data set [2] turned out to be 0.06 ng/mL (≈ 0.0595 nM); in [4], 0.05 ng/mL (≈ 0.0496 nM); in data set [5], 0.02 ng/mL (≈ 0.0198 nM); in data set [17], 0.022 ng/mL (≈ 0.0218 nM); in data set [6], 0.03 ng/mL (≈ 0.0297 nM); in data set [8], 0.009 ng/mL (≈ 0.00892 nM). Besides, in [13], the EC50 was determined as 0.32 ng/mL (≈ 0.317 nM). Further, in [3], the clearance worked out at 0.7 mL/min/kg. In addition, the half-life (in general, the time needed for the level to fall by half in the phase considered) in data set [16] was 2 h; in [11] it was 0.4 h. In data set [14], this compound displayed a Vd of 0.2 L/kg.

For `CC(=O)NC1[C@@H](N=C(N)N)C=C(C(=O)O)O[C@H]1[C@H](OC(=O)NCCCCCCCCCCCCNC(=O)O[C@H](C(O)CO)[C@@H]1OC(C(=O)O)=C[C@H](NC(=N)N)C1NC(C)=O)C(O)CO` (some centres not stated), the 50% effective concentration (EC50) is 0.05 ng/mL and 0.1 ng/mL in data set [1]; 0.032 ng/mL (≈ 0.0349 nM) in data set [4]; 0.032 ng/mL (≈ 0.0349 nM) in data set [6]; 0.37 ng/mL (≈ 0.403 nM) in data set [13]. For the same compound, the half-inhibitory concentration (IC50) – broadly, the concentration needed to halve the response being measured – in [19] turned out to be 7.86 nM; in data set [21], 61 nM; in data set [22] it was 21.7 nM. The clearance in [3] worked out at 0.7 mL/min/kg. In addition, the half-life in data set [16] is 5 h; in data set [11] it was 2.2 h; in data set [12], 4.9 h. The compound further came in with an ED90 in data set [20] of 0.03 mg/kg. The bioavailability in data set [18] was 67%; in data set [10], below 1%. This compound also yielded a Vd in data set [14] of 0.2 L/kg.
